Series [1] is described as follows: Solubility in solvents. In kind it is physicochemical.
Series [2] addresses T1, PLA2 released from thrombin-stimulated rat platelets (Rattus norvegicus, UniProt P14423).
T1 construct: PLA2 released from thrombin-stimulated rat platelets; from tissue
T1 sequence (P14423 22-146): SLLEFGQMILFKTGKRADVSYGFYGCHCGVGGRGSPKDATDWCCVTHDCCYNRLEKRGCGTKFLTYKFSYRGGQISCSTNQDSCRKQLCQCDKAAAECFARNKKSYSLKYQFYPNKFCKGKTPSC
In words: PLA2 inhibitory activity, rat platelet-derived PLA2. In kind it is biochemical. Particulars: for inhibitory concentrations of α-thielocin versus β-thielocin: isomers equilibrated in the reaction solution. The method, then: PLA2 inhibitory activities of thielocin were determined according to the following procedure.
PLA2 released from thrombin-stimulated rat platelets was prepared by immuno-affinity chromatography using antibody MD 7.1-coupled Sepharose (Murakami et. al, J. Biochem 104: 884-888, 1988). The standard assay conditions included, 250 μl of Tris-HCl buffer (100 mM, pH 7.4), CaCl2 (3 mM), 40 μM [^14 C] phosphatidylethanolamine and enzyme. The reaction was started by the addition of the enzyme solution. Following incubation at 37° C. for 20 min the reactions were terminated by addition of 1.25 ml of Dole's reagent (Dole, V. P. & H, Meinerts, J. Biol. Chem 235: 2595-2599, 1960). Then released free fatty acid was extracted, and counted in Liquiflour (Du Pont-New England Nuclear) to determine the release of the radioactivity. Inhibition activity is expressed as percent of enzyme control.

In series [3] the test system is snake venom-derived PLA2. Kind of series: PLA2 inhibitory activity, snake venom-derived PLA2. In kind it is biochemical.
The target of series [4] is T2, PLA2 derived from porcine pancreas (Sus scrofa, UniProt P00592).
T2 construct: porcine-derived PLA2; from tissue; host or cells: porcine pancreas
Kind of series: PLA2 inhibitory activity, porcine pancreas-derived PLA2. In kind it is biochemical. The settings on record: read-out: concentration required for exhibiting 50 % inhibitory activity.

T2 sequence (P00592 23-146): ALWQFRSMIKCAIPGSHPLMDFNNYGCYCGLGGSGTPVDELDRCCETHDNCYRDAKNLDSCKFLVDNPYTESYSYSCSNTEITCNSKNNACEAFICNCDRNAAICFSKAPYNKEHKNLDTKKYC

On to `COc1c(C)c(OC(=O)c2c(C)c(C)c(OC(=O)C3=C(C)C(C)(O)C4(O)Oc5c(C)c(OC)c(C(=O)Oc6c(C)c(C)c(C(=O)O)c(OC)c6C)c(C)c5CC4(C)C3=O)c(C)c2OC)c(C)c(C)c1C(=O)O` (stereo not drawn) [Thielocin α, α-thielocin], for which the Solubility result in series [1] (acetone) is reported as “Soluble”; in series [1] (acetonitrile) it was “Soluble”; in series [1] (chloroform), “Soluble”; in series [1] (dimethylsulfoxide), “Soluble”; in series [1] (ethanol), “slightly soluble”; in series [1] (ethyl acetate), “Soluble”. In addition, the Solubility entry in series [1] (ethyl ether) is recorded as “sparingly soluble or insoluble”; in series [1] (hexane), “sparingly soluble or insoluble”; in series [1] (methanol), “slightly soluble”; in series [1] (petroleum ether) it was “sparingly soluble or insoluble”; in series [1] (water), “sparingly soluble or insoluble”. For the same molecule, the “inhibitory concentrations of α-thielocin versus β-thielocin” value in series [2] is listed as “not distinguished”.

As to `COc1c(C)c(OC(=O)c2c(C)c(C)c(OC(=O)C3=C(C)C(C)(O)C4(O)Oc5c(C)c(OC)c(C(=O)Oc6c(C)c(C)c(C(=O)O)c(OC)c6C)c(C)c5CC4(C)C3=O)c(C)c2OC)c(C)c(C)c1C(=O)O` (stereo not drawn) [Thielocin β, β-thielocin], the Solubility entry in series [1] (acetone) is listed as “slightly soluble”; in series [1] (acetonitrile), “slightly soluble”; in series [1] (chloroform) it was “slightly soluble”; in series [1] (dimethylsulfoxide) it was “Soluble”; in series [1] (ethanol), “slightly soluble”; in series [1] (ethyl acetate), “slightly soluble”. The Solubility result in series [1] (ethyl ether) is listed as “sparingly soluble or insoluble”; in series [1] (hexane) it was “sparingly soluble or insoluble”; in series [1] (methanol), “slightly soluble”; in series [1] (petroleum ether), “sparingly soluble or insoluble”; in series [1] (water), “sparingly soluble or insoluble”. For the same molecule, the “inhibitory concentrations of α-thielocin versus β-thielocin” value in series [2] was “not distinguished”.

On to `COc1c(C)c(OC(=O)c2c(C)c(C)c(OC(=O)C3=C(C)C(C)(O)C4(O)Oc5c(C)c(OC)c(C(=O)Oc6c(C)c(C)c(C(=O)O)c(OC)c6C)c(C)c5CC4(C)C3=O)c(C)c2OC)c(C)c(C)c1C(=O)O` (stereo not drawn) [thielocin], for which the “concentration required for exhibiting 50 % inhibitory activity” value in series [3] was 10 µg/mL. Moreover, the IC50 in series [4] is 47.1 µM; in series [2] (rat platelet-derived PLA2, [14C]phosphatidylethanolamine substrate, 37° C., 20 min, read-out: concentration required for exhibiting 50 % inhibitory activity) it was 0.00501 µM.
